The record followed here is article PMC5218480 (PLoS ONE, 2017).

The assay relates to MV-4-11 cells. In words: Gene expression microarray analysis (Affymetrix PrimeView) and GSEA. The class given is cell-based, human. More on the design: RFU PODN (11730768_x_at) / Fold change /veh PODN (11730768_x_at) / RFU LINC00158 (11744669_a_at) / Fold change /veh LINC00158 (11744669_a_at) / RFU DUSP10 (11751237_a_at) / Fold change /veh DUSP10 (11751237_a_at) / RFU ID3 (11757404_x_at) / Fold change /veh ID3 (11757404_x_at) / RFU PLEKHG5 (11737974_s_at) / Fold change /veh PLEKHG5 (11737974_s_at) / RFU LRRC4B (11730491_at) / Fold change /veh LRRC4B (11730491_at) / RFU GIMAP4 (11747438_a_at) / Fold change /veh GIMAP4 (11747438_a_at) / RFU KRT8 (11758183_x_at) / Fold change /veh KRT8 (11758183_x_at) / RFU CNN1 (11734310_a_at) / Fold change /veh CNN1 (11734310_a_at) / RFU VPS37D (11726825_at) / Fold change /veh VPS37D (11726825_at) / RFU C10orf10 (11716522_x_at) / Fold change /veh C10orf10 (11716522_x_at) / RFU KIR2DL2 /// KIR2DL4 /// KIR2DL5A /// KIR2DL5B /// KIR2DS1 /// KIR2DS2 /// KIR2DS3 /// KIR2DS4 /// KIR3DL3 /// KIR3DL3 /// KIR3DS1 (11738374_at) / Fold change /veh KIR2DL2 /// KIR2DL4 /// KIR2DL5A /// KIR2DL5B /// KIR2DS1 /// KIR2DS2 /// KIR2DS3 /// KIR2DS4 /// KIR3DL3 /// KIR3DL3 /// KIR3DS1 (11738374_at) / RFU C1QL1 (11718748_at) / Fold change /veh C1QL1 (11718748_at) / RFU TMPRSS4 (11747572_a_at) / Fold change /veh TMPRSS4 (11747572_a_at) / RFU HAMP (11756126_x_at) / Fold change /veh HAMP (11756126_x_at) / RFU RNFT2 (11725882_a_at) / Fold change /veh RNFT2 (11725882_a_at) / RFU NR4A2 (11747474_a_at) / Fold change /veh NR4A2 (11747474_a_at) / RFU ABCC12 (11746883_a_at) / Fold change /veh ABCC12 (11746883_a_at) / RFU TMEM136 (11760407_x_at) / Fold change /veh TMEM136 (11760407_x_at) / RFU CLDN22 /// WWC2 (11732394_at) / Fold change /veh CLDN22 /// WWC2 (11732394_at) / RFU HLA-DPB1 (11760878_x_at) / Fold change /veh HLA-DPB1 (11760878_x_at) / RFU SPINT1 (11716480_a_at) / Fold change /veh SPINT1 (11716480_a_at) / RFU GAP43 (11754022_s_at) / Fold change /veh GAP43 (11754022_s_at) / RFU A4GNT (11735810_at) / Fold change /veh A4GNT (11735810_at) / RFU PRB3 (11715151_x_at) / Fold change /veh PRB3 (11715151_x_at) / RFU TUBB4B (11761932_at) / Fold change /veh TUBB4B (11761932_at) / RFU CAPN14 (11732068_a_at) / Fold change /veh CAPN14 (11732068_a_at) / RFU TMCC2 (11721928_a_at) / Fold change /veh TMCC2 (11721928_a_at) / RFU IRGQ (11745062_a_at) / Fold change /veh IRGQ (11745062_a_at) / RFU FAM174B (11720279_a_at) / Fold change /veh FAM174B (11720279_a_at) / RFU TMPRSS4 (11748680_a_at) / Fold change /veh TMPRSS4 (11748680_a_at) / RFU FAM212B (11763350_a_at) / Fold change /veh FAM212B (11763350_a_at) / RFU PLEKHG5 (11743358_a_at) / Fold change /veh PLEKHG5 (11743358_a_at) / RFU ZSCAN30 (11745921_a_at) / Fold change /veh ZSCAN30 (11745921_a_at) / RFU CMKLR1 (11741424_a_at) / Fold change /veh CMKLR1 (11741424_a_at) / RFU LOC101060620 /// MAPK8IP1 (11723275_at) / Fold change /veh LOC101060620 /// MAPK8IP1 (11723275_at) / RFU SPTSSB (11747773_x_at) / Fold change /veh SPTSSB (11747773_x_at) / RFU PRSS12 (11739890_at) / Fold change /veh PRSS12 (11739890_at) / RFU BIN1 (11741810_x_at) / Fold change /veh BIN1 (11741810_x_at) / RFU WNT11 (11732464_a_at) / Fold change /veh WNT11 (11732464_a_at) / RFU C10orf10 (11716521_a_at) / Fold change /veh C10orf10 (11716521_a_at) / RFU C5orf56 (11738089_at) / Fold change /veh C5orf56 (11738089_at) / RFU CYB561 (11721691_x_at) / Fold change /veh CYB561 (11721691_x_at) / RFU ANKRD19P (11752326_a_at) / Fold change /veh ANKRD19P (11752326_a_at) / RFU OR2T12 /// OR2T33 /// OR2T8 (11738714_s_at) / Fold change /veh OR2T12 /// OR2T33 /// OR2T8 (11738714_s_at) / RFU VCAN (11748164_a_at) / Fold change /veh VCAN (11748164_a_at) / RFU JSRP1 (11732532_at) / Fold change /veh JSRP1 (11732532_at) / RFU KRTAP10-11 (11738290_x_at) / Fold change /veh KRTAP10-11 (11738290_x_at) / RFU MYO3A (11730013_a_at) / Fold change /veh MYO3A (11730013_a_at) / RFU EBF3 (11725865_a_at) / Fold change /veh EBF3 (11725865_a_at) / RFU CAMK2N1 (11719241_x_at) / Fold change /veh CAMK2N1 (11719241_x_at) / RFU C5orf56 (11738088_a_at) / Fold change /veh C5orf56 (11738088_a_at) / RFU OLFML3 (11715873_a_at) / Fold change /veh OLFML3 (11715873_a_at) / RFU LOC100653217 /// NTM (11731650_a_at) / Fold change /veh LOC100653217 /// NTM (11731650_a_at) / RFU MAPK11 (11762145_a_at) / Fold change /veh MAPK11 (11762145_a_at) / RFU FIZ1 (11724087_x_at) / Fold change /veh FIZ1 (11724087_x_at) / RFU OASL (11726364_x_at) / Fold change /veh OASL (11726364_x_at) / RFU SOX15 (11748057_x_at) / Fold change /veh SOX15 (11748057_x_at) / RFU CD79A (11719716_a_at) / Fold change /veh CD79A (11719716_a_at) / RFU HIST1H1D (11736915_at) / Fold change /veh HIST1H1D (11736915_at) / RFU CASKIN2 (11723855_a_at) / Fold change /veh CASKIN2 (11723855_a_at) / RFU LOC730098 (11760151_x_at) / Fold change /veh LOC730098 (11760151_x_at) / RFU OR4N2 (11742367_at) / Fold change /veh OR4N2 (11742367_at) / RFU PRRT2 (11749266_a_at) / Fold change /veh PRRT2 (11749266_a_at) / RFU SNX32 (11753110_a_at) / Fold change /veh SNX32 (11753110_a_at) / RFU CDHR5 (11726645_a_at) / Fold change /veh CDHR5 (11726645_a_at) / RFU RCAN1 (11760418_a_at) / Fold change /veh RCAN1 (11760418_a_at) / RFU FAM167A (11723789_a_at) / Fold change /veh FAM167A (11723789_a_at) / RFU FAM26E (11764081_at) / Fold change /veh FAM26E (11764081_at) / RFU ISYNA1 (11749810_s_at) / Fold change /veh ISYNA1 (11749810_s_at) / RFU ACY1 (11761880_at) / Fold change /veh ACY1 (11761880_at) / RFU 11764098_at / Fold change /veh 11764098_at / RFU SAMD14 (11745864_x_at) / Fold change /veh SAMD14 (11745864_x_at) / RFU NPB (11741838_a_at) / Fold change /veh NPB (11741838_a_at) / RFU TMPRSS6 (11731388_a_at) / Fold change /veh TMPRSS6 (11731388_a_at) / RFU KRTAP10-2 (11738614_at) / Fold change /veh KRTAP10-2 (11738614_at) / RFU ARHGAP8 /// PRR5-ARHGAP8 (11727945_x_at) / Fold change /veh ARHGAP8 /// PRR5-ARHGAP8 (11727945_x_at) / RFU KRTAP5-7 /// NADSYN1 (11734609_at) / Fold change /veh KRTAP5-7 /// NADSYN1 (11734609_at) / RFU RASL12 (11751679_a_at) / Fold change /veh RASL12 (11751679_a_at) / RFU CDKN2B (11736163_a_at) / Fold change /veh CDKN2B (11736163_a_at) / RFU PRF1 (11729649_at) / Fold change /veh PRF1 (11729649_at) / RFU, ZNF638 /// ZNF638-IT1 / Fold change vs veh, ZNF638 /// ZNF638-IT1 / RFU, PANK3 / Fold change vs veh, PANK3 / RFU, SH3YL1 / Fold change vs veh, SH3YL1 / RFU, ZEB2 / Fold change vs veh, ZEB2 / RFU, NRIP1 / Fold change vs veh, NRIP1 / RFU, PTTG1IP / Fold change vs veh, PTTG1IP / RFU, CAPN2 / Fold change vs veh, CAPN2 / RFU, MED14 / Fold change vs veh, MED14 / RFU, SNORA58 / Fold change vs veh, SNORA58 / RFU, C1orf63 / Fold change vs veh, C1orf63 / RFU, LRRFIP1 / Fold change vs veh, LRRFIP1 / RFU, NDUFAF7 / Fold change vs veh, NDUFAF7 / RFU, SLC12A2 / Fold change vs veh, SLC12A2 / RFU, IBTK / Fold change vs veh, IBTK / RFU, ESF1 / Fold change vs veh, ESF1 / Fold change vs veh, TMEM50B / RFU, TAOK1 / Fold change vs veh, TAOK1 / RFU, ACBD3 / Fold change vs veh, ACBD3 / RFU, TMA16 / Fold change vs veh, TMA16 / RFU, RWDD3 / Fold change vs veh, RWDD3 / RFU, BCAT1 / Fold change vs veh, BCAT1 / RFU, EDEM3 / Fold change vs veh, EDEM3 / RFU, TMEM33 / Fold change vs veh, TMEM33 / RFU, WDR75 / Fold change vs veh, WDR75 / RFU, AHCTF1 / Fold change vs veh, AHCTF1 / RFU, TFRC / Fold change vs veh, TFRC / RFU, ZDHHC17 / Fold change vs veh, ZDHHC17 / RFU, NOM1 / Fold change vs veh, NOM1 / RFU, ARL8B / Fold change vs veh, ARL8B / RFU, ZBTB11 / Fold change vs veh, ZBTB11 / RFU, TAMM41 / Fold change vs veh, TAMM41 / RFU, KIAA1704 /// LOC100996395 / Fold change vs veh, KIAA1704 /// LOC100996395 / RFU, ING1 / Fold change vs veh, ING1 / RFU, TRMT61B / Fold change vs veh, TRMT61B / RFU, FUBP3 / Fold change vs veh, FUBP3 / RFU, TP53 / Fold change vs veh, TP53 / RFU, TNKS2 / Fold change vs veh, TNKS2 / RFU, ZFP14 / Fold change vs veh, ZFP14 / RFU, ACTR2 / Fold change vs veh, ACTR2 / RFU, PPP3R1 / Fold change vs veh, PPP3R1 / RFU, PIK3R1 / Fold change vs veh, PIK3R1 / RFU, HNRNPA1 / Fold change vs veh, HNRNPA1 / RFU, RNF170 / Fold change vs veh, RNF170 / RFU, ZNF28 / Fold change vs veh, ZNF28 / RFU, RNGTT / Fold change vs veh, RNGTT / RFU, OGT / Fold change vs veh, OGT / RFU, BRD1 / Fold change vs veh, BRD1 / RFU, MARS / Fold change vs veh, MARS / RFU, ZNF655 / Fold change vs veh, ZNF655 / RFU, FAHD1 / Fold change vs veh, FAHD1 / RFU, BDP1 / Fold change vs veh, BDP1 / RFU, LRRCC1 / Fold change vs veh, LRRCC1 / RFU, ARID1A / Fold change vs veh, ARID1A / RFU, ZNF146 / Fold change vs veh, ZNF146 / RFU, ZNF330 / Fold change vs veh, ZNF330 / RFU, GPN3 / Fold change vs veh, GPN3 / RFU, C9orf123 / Fold change vs veh, C9orf123 / RFU, N4BP2L2 / Fold change vs veh, N4BP2L2 / RFU, ARFIP1 / Fold change vs veh, ARFIP1 / RFU, FAM179B / Fold change vs veh, FAM179B / RFU, BCL10 / Fold change vs veh, BCL10 / RFU, UHRF1BP1L / Fold change vs veh, UHRF1BP1L / RFU, BET1 / Fold change vs veh, BET1 / RFU, CNOT2 / Fold change vs veh, CNOT2 / RFU, ZNF268 / Fold change vs veh, ZNF268 / Fold change vs veh, ZNF507 / RFU, DGCR2 / Fold change vs veh, DGCR2 / RFU, WDSUB1 / Fold change vs veh, WDSUB1 / Fold change vs veh, HSP90B1 /// MIR3652 / RFU, ADSS / Fold change vs veh, ADSS / RFU, GK / Fold change vs veh, GK / RFU, ZNF148 / Fold change vs veh, ZNF148 / RFU, TAF9 / Fold change vs veh, TAF9 / RFU, SLC1A5 / Fold change vs veh, SLC1A5 / RFU, SLMO2 / Fold change vs veh, SLMO2 / RFU, ABCC4 / Fold change vs veh, ABCC4 / RFU, LOC101060439 /// RAP1B / Fold change vs veh, LOC101060439 /// RAP1B / RFU, RFX7 / Fold change vs veh, RFX7 / RFU, GTPBP10 / Fold change vs veh, GTPBP10 / RFU, CNEP1R1 / Fold change vs veh, CNEP1R1 / RFU, BIVM-ERCC5 /// ERCC5 / Fold change vs veh, BIVM-ERCC5 /// ERCC5 / RFU, ILF3 / Fold change vs veh, ILF3 / RFU 11762660_at / Fold change /veh 11762660_at / RFU VCAN (11757783_s_at) / Fold change /veh VCAN (11757783_s_at) / RFU DDX43 (11728927_at) / Fold change /veh DDX43 (11728927_at) / RFU KRT8 (11758188_x_at) / Fold change /veh KRT8 (11758188_x_at) / RFU NKD1 (11759106_at) / Fold change /veh NKD1 (11759106_at) / RFU SRD5A1 (11742802_a_at) / Fold change /veh SRD5A1 (11742802_a_at) / RFU TPSAB1 /// TPSB2 (11721975_s_at) / Fold change /veh TPSAB1 /// TPSB2 (11721975_s_at) / RFU GSTM3 (11746129_a_at) / Fold change /veh GSTM3 (11746129_a_at) / RFU IL23R (11737362_x_at) / Fold change /veh IL23R (11737362_x_at) / RFU TMEM51 (11727254_a_at) / Fold change /veh TMEM51 (11727254_a_at) / RFU PIWIL2 (11732686_x_at) / Fold change /veh PIWIL2 (11732686_x_at) / RFU ORM1 (11744905_x_at) / Fold change /veh ORM1 (11744905_x_at) / RFU CCDC152 (11743942_at) / Fold change /veh CCDC152 (11743942_at) / RFU ECM1 (11717891_a_at) / Fold change /veh ECM1 (11717891_a_at) / RFU IL23R (11748794_a_at) / Fold change /veh IL23R (11748794_a_at) / RFU TNFAIP8L3 (11732012_x_at) / Fold change /veh TNFAIP8L3 (11732012_x_at) / RFU MBOAT4 (11741988_at) / Fold change /veh MBOAT4 (11741988_at) / RFU 11764193_at / Fold change /veh 11764193_at / RFU TMEM53 (11763286_at) / Fold change /veh TMEM53 (11763286_at) / RFU MAGEB2 (11727129_at) / Fold change /veh MAGEB2 (11727129_at) / RFU TMEM200A (11744735_a_at) / Fold change /veh TMEM200A (11744735_a_at) / RFU CCDC152 (11751479_a_at) / Fold change /veh CCDC152 (11751479_a_at) / RFU FAM211A (11726209_a_at) / Fold change /veh FAM211A (11726209_a_at) / RFU RGS16 (11746705_a_at) / Fold change /veh RGS16 (11746705_a_at) / RFU VCAN (11755009_s_at) / Fold change /veh VCAN (11755009_s_at) / RFU RHOB (11743442_s_at) / Fold change /veh RHOB (11743442_s_at) / RFU RGS16 (11720943_a_at) / Fold change /veh RGS16 (11720943_a_at) / RFU RGS16 (11720944_at) / Fold change /veh RGS16 (11720944_at) / RFU, VPS4B / Fold change vs veh, VPS4B / RFU, CREB1 / Fold change vs veh, CREB1 / RFU, DNAJC13 / Fold change vs veh, DNAJC13 / RFU, GNAQ / Fold change vs veh, GNAQ / RFU, CDK5R1 / Fold change vs veh, CDK5R1 / RFU, ZRANB3 / Fold change vs veh, ZRANB3 / RFU, CUL4A / Fold change vs veh, CUL4A / RFU, CCNY / Fold change vs veh, CCNY / RFU, UFL1 / Fold change vs veh, UFL1 / RFU, COG3 / Fold change vs veh, COG3 / RFU, DIAPH2 / Fold change vs veh, DIAPH2 / RFU, SKA2 / Fold change vs veh, SKA2 / RFU, AFF3 / Fold change vs veh, AFF3 / RFU, LMF1 / Fold change vs veh, LMF1 / RFU, IPO11 / Fold change vs veh, IPO11 / RFU, DFFB / Fold change vs veh, DFFB / RFU, FOXP1 / Fold change vs veh, FOXP1 / RFU, CARD8 / Fold change vs veh, CARD8 / RFU, STRN3 / Fold change vs veh, STRN3 / RFU, ADK / Fold change vs veh, ADK / RFU, RASSF2 / Fold change vs veh, RASSF2 / RFU, WIPF1 / Fold change vs veh, WIPF1 / RFU, LARP1B / Fold change vs veh, LARP1B / RFU, RASA1 / Fold change vs veh, RASA1 / RFU, RB1 / Fold change vs veh, RB1 / RFU, PPFIA1 / Fold change vs veh, PPFIA1 / RFU, MAT2A / Fold change vs veh, MAT2A / RFU, CCT5 / Fold change vs veh, CCT5 / RFU, WDR92 / Fold change vs veh, WDR92 / RFU, CUX1 / Fold change vs veh, CUX1 / RFU, TTC7A / Fold change vs veh, TTC7A / RFU, TMEM135 / Fold change vs veh, TMEM135 / RFU, DEPTOR / Fold change vs veh, DEPTOR / RFU, CPM / Fold change vs veh, CPM / RFU, DNAJB6 / Fold change vs veh, DNAJB6 / RFU, CACNA2D3 / Fold change vs veh, CACNA2D3 / RFU, DTX4 / Fold change vs veh, DTX4 / RFU, TFCP2 / Fold change vs veh, TFCP2 / RFU, GMCL1 /// GMCL1P1 / Fold change vs veh, GMCL1 /// GMCL1P1 / RFU, AEBP2 / Fold change vs veh, AEBP2 / RFU, SNHG1 /// SNORD22 /// SNORD25 /// SNORD26 /// SNORD27 /// SNORD28 /// SNORD29 /// SNORD31 / Fold change vs veh, SNHG1 /// SNORD22 /// SNORD25 /// SNORD26 /// SNORD27 /// SNORD28 /// SNORD29 /// SNORD31 / Fold change (Aza/veh), C12orf56 (ProbeSet 11735607_a_at) / Fold change (ACY-1035/veh), C12orf56 (ProbeSet 11735607_a_at) / Fold change (Aza/veh), FGFR1OP (ProbeSet 11751329_s_at) / Fold change (ACY-1035/veh), FGFR1OP (ProbeSet 11751329_s_at) / Fold change (Aza/veh), VPS36 (ProbeSet 11739960_a_at) / Fold change (ACY-1035/veh), VPS36 (ProbeSet 11739960_a_at) / RFU SYPL1 (11715823_x_at) / Fold change /veh SYPL1 (11715823_x_at) / RFU IGFBP7 (11715501_s_at) / Fold change /veh IGFBP7 (11715501_s_at) / RFU REEP3 (11722064_at) / Fold change /veh REEP3 (11722064_at) / RFU IGLL1 (11728026_x_at) / Fold change /veh IGLL1 (11728026_x_at): dose or concentration left out as unconfirmed. Conditions: ProbeSet 11729384_s_at; LIST D.

Molecules are shown by their SMILES.

`Nc1ncn([C@@H]2O[C@H](CO)[C@@H](O)[C@H]2O)c(=O)n1` [azacitidine]: the “RFU, CCNY” value is listed as 167.26 RFU.
